Experimental data: PubChem BioAssay AID248 (DTP/NCI, 2004)
“And” between values parts separate entries of the source, which are not always exact repeats. Equal entries are not always repeated. Toxic doses and inconclusive results are not listed. Cut-off read from the data, not from the text of the source: active = T/C of 150% or more; inactive = T/C below 125%.

System: L1210 leukemia ip in BDF1 mice, survival T/C
Experiment: NCI In Vivo Anticancer Drug Screen. Data for tumor model L1210 Leukemia (intraperitoneal) in B6D2F1 (BDF1) mice
Settings: endpoint: mean survival time, higher = longer survival
Method in brief: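 Mice bearing the transplanted tumor received compound or vehicle. Survival of the treated group was divided by that of the vehicle-treated control group to give the ratio.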

[1] = dose: 100.0 mg/kg/injection, schedule: Q01DX001 (ip), vehicle: saline with Tween-80
[2] = dose: 100.0 mg/kg/injection, schedule: Q04DX003 (ip), vehicle: Klucel (hydroxypropylcellulose) (HPC)
[3] = dose: 200.0 mg/kg/injection, schedule: Q04DX003 (ip), vehicle: Klucel (hydroxypropylcellulose) (HPC)
[4] = dose: 400.0 mg/kg/injection, schedule: Q04DX003 (ip), vehicle: Klucel (hydroxypropylcellulose) (HPC)
[5] = dose: 100.0 mg/kg/injection, schedule: Q01DX009 (ip), vehicle: Klucel (hydroxypropylcellulose) (HPC)
[6] = dose: 200.0 mg/kg/injection, schedule: Q01DX009 (ip), vehicle: Klucel (hydroxypropylcellulose) (HPC)
[7] = dose: 400.0 mg/kg/injection, schedule: Q01DX009 (ip), vehicle: Klucel (hydroxypropylcellulose) (HPC)
[8] = dose: 100.0 mg/kg/injection, schedule: Q01DX001 (ip), vehicle: saline
[9] = dose: 200.0 mg/kg/injection, schedule: Q01DX001 (ip), vehicle: saline
[10] = dose: 400.0 mg/kg/injection, schedule: Q01DX001 (ip), vehicle: saline
[11] = dose: 100.0 mg/kg/injection, schedule: Q04DX002 (ip), vehicle: Klucel (hydroxypropylcellulose) (HPC)
[12] = dose: 200.0 mg/kg/injection, schedule: Q04DX002 (ip), vehicle: Klucel (hydroxypropylcellulose) (HPC)
[13] = dose: 400.0 mg/kg/injection, schedule: Q04DX002 (ip), vehicle: Klucel (hydroxypropylcellulose) (HPC)
[14] = dose: 100.0 mg/kg/injection, schedule: Q01DX001 (ip), vehicle: carboxymethylcellulose (CMC)
[15] = dose: 200.0 mg/kg/injection, schedule: Q01DX001 (ip), vehicle: carboxymethylcellulose (CMC)
[16] = dose: 400.0 mg/kg/injection, schedule: Q01DX001 (ip), vehicle: carboxymethylcellulose (CMC)
[17] = dose: 100.0 mg/kg/injection, schedule: Q01DX009 (ip), vehicle: saline with Tween-80
[18] = dose: 100.0 mg/kg/injection, schedule: Q04DX003 (ip), vehicle: saline with Tween-80
[19] = dose: 200.0 mg/kg/injection, schedule: Q01DX009 (ip), vehicle: saline with Tween-80
[20] = dose: 200.0 mg/kg/injection, schedule: Q04DX003 (ip), vehicle: saline with Tween-80
[21] = dose: 400.0 mg/kg/injection, schedule: Q01DX009 (ip), vehicle: saline with Tween-80
[22] = dose: 400.0 mg/kg/injection, schedule: Q04DX003 (ip), vehicle: saline with Tween-80
[23] = dose: 100.0 mg/kg/injection, schedule: Q01DX001 (ip), vehicle: Klucel (hydroxypropylcellulose) (HPC)
[24] = dose: 200.0 mg/kg/injection, schedule: Q01DX001 (ip), vehicle: Klucel (hydroxypropylcellulose) (HPC)
[25] = dose: 400.0 mg/kg/injection, schedule: Q01DX001 (ip), vehicle: Klucel (hydroxypropylcellulose) (HPC)
[26] = dose: 200.0 mg/kg/injection, schedule: Q01DX001 (ip), vehicle: saline with Tween-80
[27] = dose: 400.0 mg/kg/injection, schedule: Q01DX001 (ip), vehicle: saline with Tween-80

Measured: T/C

CCC1CCC(NC(C)=O)CC1 (stereo not given)
inactive: dose: 25.0 mg/kg/injection, schedule: Q01DX001 (ip), vehicle: saline with Tween-80 96 % of control | dose: 50.0 mg/kg/injection, schedule: Q01DX001 (ip), vehicle: saline with Tween-80 108 % of control | [1] 94 % of control

NC(=O)CCCCCCCC(N)=O
inactive: [2] 89 % of control | [3] 89 % of control | [4] 94 % of control

Cc1cc(=O)oc2cc(OC(=O)Nc3ccc(F)c([N+](=O)[O-])c3)ccc12
inactive: [5] 101 % of control | [6] 107 % of control

CCCCOC(=O)c1ccc(NC(=O)Nc2ccccc2CC)cc1
inactive: [5] 102 % of control | [6] 109 % of control | [7] 94 % of control

CN(C)c1ccc(C(=O)C#N)cc1
inactive: [5] 100 % of control | [6] 108 % of control | [7] 100 % of control

CCC(C)(O)CC
inactive: [8] 97 % of control | [9] 110 % of control | [10] 110 % of control

CCOC(=O)c1c(-c2ccc([N+](=O)[O-])cc2)cn(-c2ccccc2)c1C
inactive: [11] 91 % of control | [12] 97 % of control | [13] 87 % of control

COc1ccc(N=C=S)cc1N=C=S
inactive: dose: 6.25 mg/kg/injection, schedule: Q01DX009 (ip), vehicle: saline with Tween-80 101 % of control | dose: 12.5 mg/kg/injection, schedule: Q01DX009 (ip), vehicle: saline with Tween-80 103 % of control | dose: 25.0 mg/kg/injection, schedule: Q01DX009 (ip), vehicle: saline with Tween-80 104 % of control

Cc1ccc(NC(=S)/C(=C(\[O-])c2ccc([N+](=O)[O-])cc2)[n+]2ccc(C(C)C)cc2)c(C)c1
inactive: [5] 101 % of control | [6] 98 % of control | [7] 101 % of control

CS(=O)(=O)CS(C)(=O)=O
inactive: [14] 93 % of control | [5] 94 % of control | dose: 100.0 mg/kg/injection, schedule: Q04DX003 (ip), vehicle: saline 94 % of control | [15] 93 % of control | [6] 105 % of control | dose: 200.0 mg/kg/injection, schedule: Q04DX003 (ip), vehicle: saline 98 % of control | [16] 110 % of control | [7] 101 % of control | dose: 400.0 mg/kg/injection, schedule: Q04DX003 (ip), vehicle: saline 93 % of control

Cc1cccnc1NS(=O)(=O)c1ccccc1
inactive: [17] 101 % of control | [18] 94 % of control | [19] 98 % of control | [20] 94 % of control | [21] 102 % of control | [22] 94 % of control

O=C1C(Cl)=C(Cl)C2(Cl)C1(Cl)C1(Cl)C(=O)C(Cl)=C(Cl)C12Cl (stereo not given)
inactive: [23] 99 % of control | [2] 104 % of control | [24] 97 % of control | [3] 98 % of control | [25] 94 % of control | [4] 96 % of control

CC(=O)Nc1ccc(NC(=O)Nc2cc(C)ccc2C)cc1
inactive: dose: 25.0 mg/kg/injection, schedule: Q04DX003 (ip), vehicle: saline with Tween-80 91 % of control | dose: 50.0 mg/kg/injection, schedule: Q04DX003 (ip), vehicle: saline with Tween-80 89 % of control | [1] 91 % of control | [17] 92 % of control and 86 % of control | dose: 100.0 mg/kg/injection, schedule: Q04DX002 (ip), vehicle: saline with Tween-80 90 % of control and 91 % of control | [18] 91 % of control | [26] 89 % of control | [19] 99 % of control and 91 % of control | dose: 200.0 mg/kg/injection, schedule: Q04DX002 (ip), vehicle: saline with Tween-80 87 % of control and 90 % of control | [27] 89 % of control | [21] 92 % of control and 100 % of control | dose: 400.0 mg/kg/injection, schedule: Q04DX002 (ip), vehicle: saline with Tween-80 89 % of control and 91 % of control | [22] 87 % of control

COP(=O)(CN1C(=O)c2ccccc2C1=O)c1ccccc1 (stereo not given)
inactive: [11] 94 % of control | [12] 94 % of control | [13] 101 % of control

CCc1c(N)nc(=O)[nH]c1C(=O)O
inactive: [23] 115 % of control | [2] 96 % of control | [24] 118 % of control | [3] 100 % of control | [25] 117 % of control | [4] 104 % of control

COc1ccc(/C=C2\C=Nc3ccccc32)cc1
inactive: [11] 94 % of control | [12] 97 % of control | [13] 108 % of control

COc1ccc(N(C)C(C)=S)cc1
inactive: dose: 100.0 mg/kg/injection, schedule: Q04DX003 (ip), vehicle: gum acacia 96 % of control | dose: 200.0 mg/kg/injection, schedule: Q04DX003 (ip), vehicle: gum acacia 103 % of control

C=CS(=O)(=O)CCCCCCCCCCCCCCCCCC
inactive: [2] 91 % of control | [3] 91 % of control | [4] 98 % of control

Cc1cccc(NC(=O)c2c(Cl)c(Cl)c(Cl)c(Cl)c2C(=O)O)c1C
inactive: [11] 91 % of control | [12] 100 % of control

O=C(/C=C/c1cccc2ccccc12)c1ccc(Cl)cc1
inactive: [2] 105 % of control | [3] 96 % of control | [4] 94 % of control

CN(C)c1nc2nc[nH]c2c(=S)n1C
inactive: [8] 97 % of control | [9] 97 % of control | [10] 95 % of control

CN(C(=O)COc1ccc(N2C(N)=NC(N)=NC2(C)C)cc1Cl)c1ccc(S(=O)(=O)F)cc1
inactive: [1] 112 % of control | [26] 102 % of control | [27] 105 % of control

Nc1nc(Br)c(Br)nc1N
inactive: [18] 104 % of control | [20] 96 % of control | [22] 93 % of control

CN(C)c1ccc(/C=N\N=C/c2ccc(N(C)C)cc2)cc1
inactive: dose: 50.0 mg/kg/injection, schedule: Q01DX009 (ip), vehicle: Klucel (hydroxypropylcellulose) (HPC) 97 % of control | [5] 93 % of control | [6] 103 % of control

O=[N+]([O-])c1ccccc1C/C=C/CCl
inactive: [14] 100 % of control | [15] 96 % of control | [16] 94 % of control

COC(=O)NNC(=O)OC
inactive: dose: 50.0 mg/kg/injection, schedule: Q01DX001 (ip), vehicle: carboxymethylcellulose (CMC) 89 % of control | [14] 94 % of control | [5] 97 % of control | [15] 97 % of control | [6] 100 % of control | [16] 103 % of control | [7] 103 % of control

O=C(Sc1ccccc1-n1cccc1)c1ccccc1
inactive: [17] 109 % of control | [19] 100 % of control | [21] 102 % of control

Cn1c(N)c(N=O)c(=O)n(C)c1=O
inactive: dose: 9.0 mg/kg/injection, schedule: Q01DX009 (ip), vehicle: saline with Tween-80 103 % of control | dose: 18.0 mg/kg/injection, schedule: Q01DX009 (ip), vehicle: saline with Tween-80 103 % of control | dose: 36.0 mg/kg/injection, schedule: Q01DX009 (ip), vehicle: saline with Tween-80 105 % of control | dose: 72.0 mg/kg/injection, schedule: Q01DX009 (ip), vehicle: saline with Tween-80 97 % of control | dose: 90.0 mg/kg/injection, schedule: Q01DX009 (ip), vehicle: saline with Tween-80 93 % of control | dose: 180.0 mg/kg/injection, schedule: Q01DX009 (ip), vehicle: saline with Tween-80 100 % of control | dose: 360.0 mg/kg/injection, schedule: Q01DX009 (ip), vehicle: saline with Tween-80 98 % of control | dose: 360.0 mg/kg/injection, schedule: Q04DX003 (ip), vehicle: saline with Tween-80 97 % of control | dose: 720.0 mg/kg/injection, schedule: Q04DX003 (ip), vehicle: saline with Tween-80 95 % of control

COC(=O)/C=C(\C(=O)OC)N1CCCCC1
inactive: dose: 18.75 mg/kg/injection, schedule: Q01DX009 (ip), vehicle: saline with Tween-80 98 % of control | dose: 37.5 mg/kg/injection, schedule: Q01DX009 (ip), vehicle: saline with Tween-80 101 % of control | dose: 75.0 mg/kg/injection, schedule: Q01DX009 (ip), vehicle: saline with Tween-80 91 % of control | [17] 107 % of control
